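Following 48 hours of exposure in 96-well plates, responses at five concentrations were used to interpolate endpoints linearly. The concentration for 50% growth inhibition is given as GI50.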 Active and inactive are the calls of the source. Cut-off read from the data, not from the text of the source: active = GI50 up to about 1.1 µM and inactive = higher.
Key:
Test in all cases: NCI anticancer screen, dose series, 48 h
HCT-15 = system: HCT-15
SN12C = system: SN12C
HOP-92 = system: HOP-92
A498 = system: A498
OVCAR-8 = system: OVCAR-8
HCT-116 = system: HCT-116
SNB-19 = system: SNB-19
TK-10 = system: TK-10
EKVX = system: EKVX
SNB-75 = system: SNB-75
SF-295 = system: SF-295
SF-268 = system: SF-268
T47D = system: T47D
OVCAR-3 = system: OVCAR-3
SR = system: SR
UACC-257 = system: UACC-257
DU-145 = system: DU-145
SK-OV-3 = system: SK-OV-3
NCI-H522 = system: NCI-H522
RXF 393 = system: RXF 393

SMILES	GI50 (HCT-15)	GI50 (SN12C)	GI50 (HOP-92)	GI50 (A498)	GI50 (OVCAR-8)	GI50 (HCT-116)	GI50 (SNB-19)	GI50 (TK-10)	GI50 (EKVX)	GI50 (SNB-75)	GI50 (SF-295)	GI50 (SF-268)	GI50 (T47D)	GI50 (OVCAR-3)	GI50 (SR)	GI50 (UACC-257)	GI50 (DU-145)	GI50 (SK-OV-3)	GI50 (NCI-H522)	GI50 (RXF 393)
CCN1C(=O)c2ccccc2C1(O)c1ccc(Cl)cc1 (stereo not drawn)	> 100 µM	> 100 µM (inactive)	> 100 µM (inactive)	> 100 µM (inactive)	52.8 µM (inactive)	37.7 µM (inactive)	20.7 µM (inactive)	94.4 µM (inactive)	33.3 µM (inactive)	> 10 µM (inactive)	18.4 µM (inactive)	79.8 µM (inactive)	17.7 µM (inactive)	31.1 µM (inactive)	41.2 µM (inactive)	75.5 µM (inactive)	80.2 µM (inactive)	24.4 µM (inactive)		
CCn1c(-c2ccc(OC)cc2)nc2c1C(=O)c1ccccc1C2=O	> 100 µM	> 100 µM (inactive)	> 100 µM (inactive)		> 100 µM (inactive)	> 100 µM (inactive)	> 100 µM (inactive)	> 100 µM (inactive)	> 100 µM (inactive)	> 100 µM (inactive)	> 100 µM (inactive)	> 100 µM (inactive)	> 100 µM (inactive)	> 100 µM (inactive)	> 100 µM (inactive)	> 100 µM (inactive)	> 100 µM (inactive)	> 100 µM (inactive)	> 100 µM (inactive)	> 100 µM (inactive)
C=C(C)CCC1CCCCC(CN(C)C)C1=O (stereo not drawn)	> 100 µM	> 100 µM (inactive)	> 100 µM (inactive)	> 100 µM (inactive)	> 100 µM (inactive)	> 100 µM (inactive)	> 100 µM (inactive)	> 100 µM (inactive)	> 100 µM (inactive)	> 100 µM (inactive)	> 100 µM (inactive)	> 100 µM (inactive)	> 100 µM (inactive)	> 100 µM (inactive)	> 100 µM (inactive)	> 100 µM (inactive)	> 100 µM (inactive)	> 100 µM (inactive)	10.7 µM (inactive)	
COC(=O)CCC1=NCC(C)(C)O1	> 10 µM	> 10 µM (inactive)		> 10 µM (inactive)	> 10 µM (inactive)	> 10 µM (inactive)	> 10 µM (inactive)	> 10 µM (inactive)	> 10 µM (inactive)	2.79 µM (inactive)	> 10 µM (inactive)	> 10 µM (inactive)	> 10 µM (inactive)	> 10 µM (inactive)	> 10 µM (inactive)	> 10 µM (inactive)	> 10 µM (inactive)	> 10 µM (inactive)	> 10 µM (inactive)	> 10 µM (inactive)
CC1(C)CC2C=C(C=O)C3(C=O)CC3(C)C2C1 (stereo not drawn)	1.64 µM	2.54 µM (inactive)	1.95 µM (inactive)		1.95 µM (inactive)	0.847 µM (active)	11.8 µM (inactive)	2.39 µM (inactive)	3.4 µM (inactive)	1.89 µM (inactive)	4.5 µM (inactive)	3.88 µM (inactive)	1.33 µM (inactive)	0.944 µM (active)	0.218 µM (active)	2.38 µM (inactive)	5.45 µM (inactive)	3.43 µM (inactive)	1.09 µM (active)	1.94 µM (inactive)
CC(NC(=N)N)C(=O)O (stereo not drawn)	> 100 µM	> 100 µM (inactive)		> 100 µM (inactive)	> 100 µM (inactive)	> 100 µM (inactive)	> 100 µM (inactive)	> 100 µM (inactive)	> 100 µM (inactive)	> 100 µM (inactive)	> 100 µM (inactive)	> 100 µM (inactive)	> 100 µM (inactive)	> 100 µM (inactive)	> 100 µM (inactive)	> 100 µM (inactive)	> 100 µM (inactive)	> 100 µM (inactive)	> 100 µM (inactive)	> 100 µM (inactive)
O=C1C2=Cc3ccccc3OC2(O)Oc2cc(O)ccc21 (stereo not drawn)	97.7 µM	> 100 µM (inactive)	> 100 µM (inactive)	> 100 µM (inactive)	> 100 µM (inactive)	> 100 µM (inactive)		> 100 µM (inactive)	> 100 µM (inactive)	> 100 µM (inactive)	> 100 µM (inactive)	> 100 µM (inactive)	> 100 µM (inactive)	> 100 µM (inactive)		> 100 µM (inactive)	> 100 µM (inactive)	> 100 µM (inactive)		> 100 µM (inactive)
CC(=O)OCC1=C(C)C(OC(=O)C(OC(C)=O)[C@@H](NC(=O)c2ccccc2)c2ccccc2)CCC1(C)C (stereo partly drawn)	> 100 µM	> 100 µM (inactive)		> 100 µM (inactive)	> 100 µM (inactive)	> 100 µM (inactive)	> 100 µM (inactive)	> 100 µM (inactive)	> 100 µM (inactive)	9.86 µM (inactive)	> 100 µM (inactive)	> 100 µM (inactive)	> 100 µM (inactive)	> 100 µM (inactive)	> 100 µM (inactive)	> 100 µM (inactive)	> 100 µM (inactive)	> 100 µM (inactive)		> 100 µM (inactive)

Reference: ChEMBL document CHEMBL1201862, “PubChem BioAssay data set” (2004)
